What was measured:
[1] = biological target: Serine/threonine-protein kinase D2 (Homo sapiens) (UniProt Q9BZL6); assay: Inhibition of partial length wild type human PRKD2 expressed in bacterial system assessed as enzyme activity at 1 uM relative to control; parameters: scale not given: the % may be the effect or the level left
[2] = biological target: Cyclin-dependent kinase 4/cyclin D1 (Homo sapiens) (UniProt P11802+P24385); assay: Inhibition of full length wild type human CDK4-cyclinD1 expressed in mammalian system assessed as enzyme activity at 1 uM relative to control; parameters: scale not given: the % may be the effect or the level left
[3] = biological target: Serine/threonine-protein kinase PLK4 (Homo sapiens) (UniProt O00444); assay: Inhibition of partial length wild type human PLK4 expressed in mammalian system assessed as enzyme activity at 1 uM relative to control; parameters: scale not given: the % may be the effect or the level left
[4] = biological target: Serine/threonine-protein kinase 3 (Homo sapiens) (UniProt Q13188); assay: Inhibition of partial length wild type human MST2 expressed in bacterial system assessed as enzyme activity at 1 uM relative to control; parameters: scale not given: the % may be the effect or the level left
[5] = biological target: Glycogen synthase kinase-3 beta (Homo sapiens) (UniProt P49841); assay: Inhibition of full length wild type human GSK3beta expressed in mammalian system assessed as enzyme activity at 1 uM relative to control; parameters: scale not given: the % may be the effect or the level left
Glycogen synthase kinase-3 beta (Homo sapiens), sequence (P49841 whole entry, looked up): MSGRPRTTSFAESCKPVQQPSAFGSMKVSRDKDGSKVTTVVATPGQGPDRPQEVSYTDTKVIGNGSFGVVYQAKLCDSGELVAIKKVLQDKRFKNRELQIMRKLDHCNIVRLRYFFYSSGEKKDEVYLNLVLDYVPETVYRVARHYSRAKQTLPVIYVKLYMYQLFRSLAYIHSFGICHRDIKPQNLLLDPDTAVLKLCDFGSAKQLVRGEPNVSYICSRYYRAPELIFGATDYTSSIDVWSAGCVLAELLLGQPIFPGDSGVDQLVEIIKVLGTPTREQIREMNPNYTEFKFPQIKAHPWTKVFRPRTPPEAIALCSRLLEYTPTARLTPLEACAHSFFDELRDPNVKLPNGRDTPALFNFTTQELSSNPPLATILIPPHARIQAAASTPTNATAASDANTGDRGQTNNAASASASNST

[6] = biological target: Serine/threonine-protein kinase PAK 2 (Homo sapiens) (UniProt Q13177); assay: Inhibition of partial length wild type human PAK2 expressed in bacterial system assessed as enzyme activity at 1 uM relative to control; parameters: scale not given: the % may be the effect or the level left
[7] = biological target: Serine/threonine-protein kinase B-raf (Homo sapiens, UniProt P15056, V600E); assay: Inhibition of B-Raf V600E mutant in human A375 cells assessed as ERK phosphorylation preincubated for 1 hr by Western blot method; type: cell-based, A-375
[8] = biological target: Phosphatidylinositol 4,5-bisphosphate 3-kinase catalytic subunit delta isoform (Homo sapiens) (UniProt O00329); assay: Inhibition of partial length wild type human PIK3CD expressed in mammalian system assessed as enzyme activity at 1 uM relative to control; parameters: scale not given: the % may be the effect or the level left
[9] = biological target: Mitogen-activated protein kinase kinase kinase 9 (Homo sapiens) (UniProt P80192); assay: Inhibition of partial length wild type human MLK1 expressed in bacterial system assessed as enzyme activity at 1 uM relative to control; parameters: scale not given: the % may be the effect or the level left
[10] = biological target: Myotonin-protein kinase (Homo sapiens) (UniProt Q09013); assay: Inhibition of partial length wild type human DMPK expressed in bacterial system assessed as enzyme activity at 1 uM relative to control; parameters: scale not given: the % may be the effect or the level left
[11] = biological target: Tyrosine-protein kinase BTK (Homo sapiens) (UniProt Q06187); assay: Inhibition of full length wild type human BTK expressed in mammalian system assessed as enzyme activity at 1 uM relative to control; parameters: scale not given: the % may be the effect or the level left
[12] = biological target: Mitogen-activated protein kinase kinase kinase kinase 1 (Homo sapiens) (UniProt Q92918); assay: Inhibition of full length wild type human HPK1 expressed in bacterial system assessed as enzyme activity at 1 uM relative to control; parameters: scale not given: the % may be the effect or the level left
[13] = biological target: Rhodopsin kinase GRK1 (Homo sapiens) (UniProt Q15835); assay: Inhibition of full length wild type human GRK1 expressed in mammalian system assessed as enzyme activity at 1 uM relative to control; parameters: scale not given: the % may be the effect or the level left
Rhodopsin kinase GRK1 (Homo sapiens), sequence (Q15835 whole entry): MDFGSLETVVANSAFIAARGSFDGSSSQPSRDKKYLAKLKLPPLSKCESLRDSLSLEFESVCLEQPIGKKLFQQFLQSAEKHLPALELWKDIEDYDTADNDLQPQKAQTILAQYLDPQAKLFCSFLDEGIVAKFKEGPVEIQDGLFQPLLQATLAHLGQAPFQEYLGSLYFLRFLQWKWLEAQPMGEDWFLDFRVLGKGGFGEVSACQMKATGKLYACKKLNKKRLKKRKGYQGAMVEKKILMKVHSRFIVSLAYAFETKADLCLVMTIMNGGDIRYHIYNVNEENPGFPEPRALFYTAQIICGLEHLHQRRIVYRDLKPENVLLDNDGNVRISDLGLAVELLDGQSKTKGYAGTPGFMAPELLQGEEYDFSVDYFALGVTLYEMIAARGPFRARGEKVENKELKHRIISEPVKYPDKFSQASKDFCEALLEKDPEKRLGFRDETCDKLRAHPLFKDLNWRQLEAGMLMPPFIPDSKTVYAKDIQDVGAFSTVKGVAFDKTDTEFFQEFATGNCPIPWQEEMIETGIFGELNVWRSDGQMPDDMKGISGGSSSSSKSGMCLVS

[14] = biological target: MAP/microtubule affinity-regulating kinase 3 (Homo sapiens) (UniProt P27448); assay: Inhibition of full length wild type human MARK3 expressed in bacterial system assessed as enzyme activity at 1 uM relative to control; parameters: scale not given: the % may be the effect or the level left
[15] = biological target: Serine/threonine-protein kinase mTOR (Homo sapiens) (UniProt P42345); assay: Inhibition of partial length wild type human MTOR expressed in mammalian system assessed as enzyme activity at 1 uM relative to control; parameters: scale not given: the % may be the effect or the level left
[16] = biological target: Wee1-like protein kinase (Homo sapiens) (UniProt P30291); assay: Inhibition of partial length wild type human WEE1 expressed in bacterial system assessed as enzyme activity at 1 uM relative to control; parameters: scale not given: the % may be the effect or the level left
[17] = biological target: Serine/threonine-protein kinase B-raf (Homo sapiens, UniProt P15056); assay: Inhibition of wild type B-Raf in human MIAPaCa2 cells assessed as reduction in ERK phosphorylation preincubated for 1 hr by Western blot method; type: cell-based, MIA PaCa-2
[18] = biological target: Death-associated protein kinase 1 (Homo sapiens) (UniProt P53355); assay: Inhibition of partial length wild type human DAPK1 expressed in bacterial system assessed as enzyme activity at 1 uM relative to control; parameters: scale not given: the % may be the effect or the level left
Death-associated protein kinase 1 (Homo sapiens), sequence (P53355 whole entry, looked up): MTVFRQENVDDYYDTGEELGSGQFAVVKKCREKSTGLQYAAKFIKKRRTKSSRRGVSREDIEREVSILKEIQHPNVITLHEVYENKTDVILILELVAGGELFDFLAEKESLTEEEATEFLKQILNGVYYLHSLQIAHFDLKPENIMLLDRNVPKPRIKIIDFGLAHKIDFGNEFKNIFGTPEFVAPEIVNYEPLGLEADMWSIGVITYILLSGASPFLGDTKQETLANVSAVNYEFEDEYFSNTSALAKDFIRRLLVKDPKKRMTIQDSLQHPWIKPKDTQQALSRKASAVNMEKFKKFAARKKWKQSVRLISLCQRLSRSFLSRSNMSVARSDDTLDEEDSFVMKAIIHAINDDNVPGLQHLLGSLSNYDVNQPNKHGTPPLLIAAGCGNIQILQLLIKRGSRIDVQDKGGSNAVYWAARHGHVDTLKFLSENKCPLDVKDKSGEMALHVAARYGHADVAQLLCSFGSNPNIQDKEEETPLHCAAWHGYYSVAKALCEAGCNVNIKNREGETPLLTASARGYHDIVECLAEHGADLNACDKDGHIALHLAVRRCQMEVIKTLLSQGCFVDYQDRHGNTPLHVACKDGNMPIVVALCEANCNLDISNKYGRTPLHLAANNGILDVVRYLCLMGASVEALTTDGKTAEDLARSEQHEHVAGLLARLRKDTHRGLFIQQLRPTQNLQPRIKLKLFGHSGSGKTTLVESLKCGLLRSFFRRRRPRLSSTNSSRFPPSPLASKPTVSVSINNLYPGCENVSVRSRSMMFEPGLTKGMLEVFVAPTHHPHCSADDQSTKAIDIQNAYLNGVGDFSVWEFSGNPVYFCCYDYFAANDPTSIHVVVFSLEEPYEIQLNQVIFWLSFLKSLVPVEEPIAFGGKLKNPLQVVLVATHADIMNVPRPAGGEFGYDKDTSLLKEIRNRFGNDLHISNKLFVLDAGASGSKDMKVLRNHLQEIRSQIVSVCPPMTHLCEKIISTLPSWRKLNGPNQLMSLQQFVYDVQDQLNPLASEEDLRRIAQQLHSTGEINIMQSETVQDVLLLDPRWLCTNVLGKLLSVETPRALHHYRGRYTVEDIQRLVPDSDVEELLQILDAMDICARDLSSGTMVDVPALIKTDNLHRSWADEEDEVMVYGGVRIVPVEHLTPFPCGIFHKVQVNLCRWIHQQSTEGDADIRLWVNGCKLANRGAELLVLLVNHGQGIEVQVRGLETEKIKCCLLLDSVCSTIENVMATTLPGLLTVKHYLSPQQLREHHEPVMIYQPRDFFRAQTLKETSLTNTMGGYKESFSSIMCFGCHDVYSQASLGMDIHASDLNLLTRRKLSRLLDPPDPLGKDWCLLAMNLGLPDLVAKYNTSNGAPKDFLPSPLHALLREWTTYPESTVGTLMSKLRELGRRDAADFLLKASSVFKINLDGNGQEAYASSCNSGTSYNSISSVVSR

[19] = biological target: RAC-beta serine/threonine-protein kinase (Homo sapiens) (UniProt P31751); assay: Inhibition of partial length wild type human AKT2 expressed in bacterial system assessed as enzyme activity at 1 uM relative to control; parameters: scale not given: the % may be the effect or the level left
[20] = biological target: Mitogen-activated protein kinase kinase kinase kinase 4 (Homo sapiens) (UniProt O95819); assay: Inhibition of partial length wild type human MAP4K4 expressed in bacterial system assessed as enzyme activity at 1 uM relative to control; parameters: scale not given: the % may be the effect or the level left
[21] = biological target: Epithelial discoidin domain-containing receptor 1 (Homo sapiens) (UniProt Q08345); assay: Inhibition of partial length wild type human DDR1 expressed in bacterial system assessed as enzyme activity at 1 uM relative to control; parameters: scale not given: the % may be the effect or the level left
Epithelial discoidin domain-containing receptor 1 (Homo sapiens), sequence (Q08345 whole entry, the tested form may be a part): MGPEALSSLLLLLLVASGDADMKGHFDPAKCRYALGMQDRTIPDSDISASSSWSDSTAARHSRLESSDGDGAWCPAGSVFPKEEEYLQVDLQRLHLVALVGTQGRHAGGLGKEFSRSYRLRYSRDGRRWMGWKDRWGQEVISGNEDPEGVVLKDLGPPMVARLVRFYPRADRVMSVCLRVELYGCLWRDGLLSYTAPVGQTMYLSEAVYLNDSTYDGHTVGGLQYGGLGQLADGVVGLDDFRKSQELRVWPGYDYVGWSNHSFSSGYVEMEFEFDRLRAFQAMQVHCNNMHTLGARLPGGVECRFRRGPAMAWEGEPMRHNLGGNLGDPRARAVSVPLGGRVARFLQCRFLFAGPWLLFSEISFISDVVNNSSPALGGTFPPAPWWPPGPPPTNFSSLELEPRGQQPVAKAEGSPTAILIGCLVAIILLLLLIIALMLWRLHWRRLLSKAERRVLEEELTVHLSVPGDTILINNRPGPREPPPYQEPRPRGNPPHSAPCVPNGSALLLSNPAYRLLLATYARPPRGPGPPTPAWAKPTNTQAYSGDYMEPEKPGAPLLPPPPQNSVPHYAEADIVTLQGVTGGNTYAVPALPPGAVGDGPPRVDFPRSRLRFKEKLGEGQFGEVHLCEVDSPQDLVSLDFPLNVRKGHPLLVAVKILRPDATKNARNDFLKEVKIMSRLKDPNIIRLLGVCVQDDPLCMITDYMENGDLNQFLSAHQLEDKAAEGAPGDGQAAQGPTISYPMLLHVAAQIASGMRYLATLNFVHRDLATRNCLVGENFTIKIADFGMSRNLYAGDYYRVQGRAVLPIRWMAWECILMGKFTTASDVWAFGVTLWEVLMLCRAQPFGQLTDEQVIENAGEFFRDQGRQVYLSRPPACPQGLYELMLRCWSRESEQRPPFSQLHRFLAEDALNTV

[22] = biological target: High affinity nerve growth factor receptor (Homo sapiens) (UniProt P04629); assay: Inhibition of partial length wild type human TRKA expressed in mammalian system assessed as enzyme activity at 1 uM relative to control; parameters: scale not given: the % may be the effect or the level left
[23] = biological target: Testis-specific serine/threonine-protein kinase 1 (Homo sapiens) (UniProt Q9BXA7); assay: Inhibition of full length wild type human TSSK1B expressed in bacterial system assessed as enzyme activity at 1 uM relative to control; parameters: scale not given: the % may be the effect or the level left
Testis-specific serine/threonine-protein kinase 1 (Homo sapiens), sequence (Q9BXA7 whole entry, the tested form may be a part): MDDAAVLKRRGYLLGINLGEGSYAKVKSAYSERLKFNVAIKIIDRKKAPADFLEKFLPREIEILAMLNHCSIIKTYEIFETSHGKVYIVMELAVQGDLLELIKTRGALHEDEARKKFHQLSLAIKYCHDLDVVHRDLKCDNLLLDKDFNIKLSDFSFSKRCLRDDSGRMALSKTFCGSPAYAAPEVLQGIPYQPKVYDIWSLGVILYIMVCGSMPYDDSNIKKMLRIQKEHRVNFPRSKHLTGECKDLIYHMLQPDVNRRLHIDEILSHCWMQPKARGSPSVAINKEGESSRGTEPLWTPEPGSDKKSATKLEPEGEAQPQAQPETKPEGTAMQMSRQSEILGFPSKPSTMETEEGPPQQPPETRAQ

[24] = biological target: LIM domain kinase 1 (Homo sapiens) (UniProt P53667); assay: Inhibition of full length wild type human LIMK1 expressed in bacterial system assessed as enzyme activity at 1 uM relative to control; parameters: scale not given: the % may be the effect or the level left
[25] = biological target: TGF-beta receptor type-1 (Homo sapiens) (UniProt P36897); assay: Inhibition of partial length wild type human TGFBR1 expressed in bacterial system assessed as enzyme activity at 1 uM relative to control; parameters: scale not given: the % may be the effect or the level left
TGF-beta receptor type-1 (Homo sapiens), sequence (P36897 whole entry): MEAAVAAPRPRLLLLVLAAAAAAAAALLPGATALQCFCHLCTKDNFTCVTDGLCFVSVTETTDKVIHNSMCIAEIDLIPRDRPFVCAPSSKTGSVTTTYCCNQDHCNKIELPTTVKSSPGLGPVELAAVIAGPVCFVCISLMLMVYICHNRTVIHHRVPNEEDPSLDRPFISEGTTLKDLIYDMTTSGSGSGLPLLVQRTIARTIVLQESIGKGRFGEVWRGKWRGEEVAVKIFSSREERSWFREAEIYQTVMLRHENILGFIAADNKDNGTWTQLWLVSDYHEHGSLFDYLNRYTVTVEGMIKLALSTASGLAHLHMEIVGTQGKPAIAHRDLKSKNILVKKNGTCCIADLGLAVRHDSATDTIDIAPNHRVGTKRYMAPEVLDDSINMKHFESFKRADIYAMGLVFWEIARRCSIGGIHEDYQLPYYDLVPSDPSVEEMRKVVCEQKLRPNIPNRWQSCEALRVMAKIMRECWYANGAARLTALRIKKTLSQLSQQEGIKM

[26] = biological target: Dual specificity protein kinase CLK1 (Homo sapiens) (UniProt P49759); assay: Inhibition of full length wild type human CLK1 expressed in bacterial system assessed as enzyme activity at 1 uM relative to control; parameters: scale not given: the % may be the effect or the level left
[27] = biological target: Interferon-induced, double-stranded RNA-activated protein kinase (Homo sapiens) (UniProt P19525); assay: Inhibition of partial length wild type human PRKR expressed in bacterial system assessed as enzyme activity at 1 uM relative to control; parameters: scale not given: the % may be the effect or the level left
[28] = biological target: Vascular endothelial growth factor receptor 2 (Homo sapiens) (UniProt P35968); assay: Inhibition of partial length wild type human VEGFR2 expressed in mammalian system assessed as enzyme activity at 1 uM relative to control; parameters: scale not given: the % may be the effect or the level left
[29] = biological target: Tyrosine-protein kinase ABL1 (Homo sapiens) (UniProt P00519); assay: Inhibition of partial length wild type nonphosphorylated human ABL1 expressed in mammalian system assessed as enzyme activity at 1 uM relative to control; parameters: scale not given: the % may be the effect or the level left
[30] = biological target: Cyclin-G-associated kinase (Homo sapiens) (UniProt O14976); assay: Inhibition of partial length wild type human GAK expressed in bacterial system assessed as enzyme activity at 1 uM relative to control; parameters: scale not given: the % may be the effect or the level left
[31] = biological target: Serine/threonine-protein kinase TBK1 (Homo sapiens) (UniProt Q9UHD2); assay: Inhibition of full length wild type human TBK1 expressed in mammalian system assessed as enzyme activity at 1 uM relative to control; parameters: scale not given: the % may be the effect or the level left
[32] = biological target: Mitogen-activated protein kinase 1 (Homo sapiens) (UniProt P28482); assay: Inhibition of full length wild type human ERK2 expressed in bacterial system assessed as enzyme activity at 1 uM relative to control; parameters: scale not given: the % may be the effect or the level left

Serine/threonine-protein kinase D2 (Homo sapiens), sequence (Q9BZL6 whole entry): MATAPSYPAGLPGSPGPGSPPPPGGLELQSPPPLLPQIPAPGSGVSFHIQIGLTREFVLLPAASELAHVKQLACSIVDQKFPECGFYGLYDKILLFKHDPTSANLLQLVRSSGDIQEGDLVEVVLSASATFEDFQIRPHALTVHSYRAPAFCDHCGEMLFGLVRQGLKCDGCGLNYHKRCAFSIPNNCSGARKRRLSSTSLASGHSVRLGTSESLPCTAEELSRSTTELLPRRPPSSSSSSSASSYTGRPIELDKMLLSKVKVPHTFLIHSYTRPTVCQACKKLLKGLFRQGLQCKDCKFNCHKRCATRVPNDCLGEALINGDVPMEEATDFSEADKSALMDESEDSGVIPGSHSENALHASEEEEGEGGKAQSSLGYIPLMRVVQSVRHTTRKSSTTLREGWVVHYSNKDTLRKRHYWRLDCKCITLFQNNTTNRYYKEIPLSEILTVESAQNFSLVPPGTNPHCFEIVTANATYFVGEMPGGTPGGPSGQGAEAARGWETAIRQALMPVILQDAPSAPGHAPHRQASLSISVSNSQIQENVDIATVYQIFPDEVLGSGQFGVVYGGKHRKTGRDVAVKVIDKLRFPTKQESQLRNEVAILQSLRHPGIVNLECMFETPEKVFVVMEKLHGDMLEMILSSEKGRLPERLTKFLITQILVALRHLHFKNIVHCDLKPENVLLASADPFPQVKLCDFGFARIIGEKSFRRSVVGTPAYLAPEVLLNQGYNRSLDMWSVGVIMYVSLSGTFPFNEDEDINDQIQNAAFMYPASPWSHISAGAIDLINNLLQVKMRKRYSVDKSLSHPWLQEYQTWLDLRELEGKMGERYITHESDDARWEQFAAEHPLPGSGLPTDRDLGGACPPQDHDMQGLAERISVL

Question: How did the Activity [1] turn out when `CN(C)S(=O)(=O)Nc1ccc(F)c(Nc2ncccc2-c2ncnc3[nH]cnc23)c1F` was run?
Answer: The Activity was 88%.

Question: And the Activity [2]?
Answer: Its Activity is 98%.

Question: What about the Activity [3] of the same compound?
Answer: Its Activity is 91%.

Question: What about the Activity [4] of the same compound?
Answer: The Activity was 91%.

Question: And the Activity [5]?
Answer: The Activity was 100%.

Question: And the Activity [6]?
Answer: The Activity was 94%.

Question: What about the IC50 [7] of the same compound?
Answer: The IC50 was 54 nM.

Question: What about the Activity [8] of the same compound?
Answer: Its Activity is 37%.

Question: And the Activity [9]?
Answer: Its Activity is 96%.

Question: And the Activity [10]?
Answer: Its Activity is 100%.

Question: And the Activity [11]?
Answer: Its Activity is 95%.

Question: What about the Activity [12] of the same compound?
Answer: The Activity was 87%.

Question: And the Activity [13]?
Answer: The Activity was 76%.

Question: What about the Activity [14] of the same compound?
Answer: Its Activity is 87%.

Question: What about the Activity [15] of the same compound?
Answer: Its Activity is 100%.

Question: And the Activity [16]?
Answer: The Activity was 90%.

Question: And the EC50 [17]?
Answer: Its EC50 is 1780 nM.

Question: What about the Activity [18] of the same compound?
Answer: Its Activity is 100%.

Question: What about the Activity [19] of the same compound?
Answer: The Activity was 100%.

Question: And the Activity [20]?
Answer: The Activity was 98%.

Question: What about the Activity [21] of the same compound?
Answer: Its Activity is 88%.

Question: What about the Activity [22] of the same compound?
Answer: Its Activity is 100%.

Question: What about the Activity [23] of the same compound?
Answer: The Activity was 100%.

Question: What about the Activity [24] of the same compound?
Answer: Its Activity is 57%.

Question: And the Activity [25]?
Answer: Its Activity is 65%.

Question: What about the Activity [26] of the same compound?
Answer: The Activity was 90%.

Question: What about the Activity [27] of the same compound?
Answer: Its Activity is 83%.

Question: And the Activity [28]?
Answer: Its Activity is 84%.

Question: And the Activity [29]?
Answer: Its Activity is 96%.

Question: What about the Activity [30] of the same compound?
Answer: Its Activity is 78%.

Question: What about the Activity [31] of the same compound?
Answer: The Activity was 100%.

Question: What about the Activity [32] of the same compound?
Answer: Its Activity is 98%.

Source: ChEMBL document CHEMBL3797029, “Purinylpyridinylamino-based DFG-in/αC-helix-out B-Raf inhibitors: Applying mutant versus wild-type B-Raf selectivity indices for compound profiling” (Bioorg Med Chem, 2016)
